For two molecules, IC50 and Ki results are on record in ChEMBL document CHEMBL1137626, “Identifying common metalloprotease inhibitors by protein fold types using Fourier transform mass spectrometry” (Bioorg Med Chem Lett, 2007).

The nature of the assay: Inhibition of thermolysin by enzcheck protease assay.

The IC50 is the concentration at which inhibition is half-maximal. A lower IC50 goes with greater potency in that assay. The term Ki denotes the equilibrium dissociation constant of an inhibitor or competing ligand from its target. Higher therefore signals a looser hold on the target. With `CCCCC[C@H](CC(=O)NO)C(=O)N[C@H](C(=O)N1CCC[C@H]1CO)C(C)C` [ACTINONIN], the IC50 amounted to 18.3 µM and the affinity, expressed as Ki, was 4.88 µM.
Consider `CC(C)C[C@H](NP(=O)(O)O[C@@H]1O[C@@H](C)[C@H](O)[C@@H](O)[C@H]1O)C(=O)N[C@@H](Cc1c[nH]c2ccccc12)C(=O)O` [PHOSPHORAMIDON], for which the IC50 is 13.8 µM and affinity was put at a Ki of 6.98 µM.
